Assay results published in PubChem BioAssay (NCI).
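Growth conditions: 96-well plates. Treatment: test compound, 48 hours, 5 concentrations. Analysis: linear interpolation between bracketing concentrations; unreached endpoints set to highest concentration. TGI: total growth inhibition.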

What was measured:
Assay in all cases: DTP human tumour cell line panel, 48 h
[1] = tested on: MALME-3M melanoma
[2] = tested on: CAKI-1 renal
[3] = tested on: UO-31 renal
[4] = tested on: 786-0 renal
[5] = tested on: SW-620 colon
[6] = tested on: DU-145 prostate
[7] = tested on: MDA-MB-435
[8] = tested on: SK-MEL-2 melanoma
[9] = tested on: KM12 colon
[10] = tested on: EKVX NSCLC
[11] = tested on: K-562 leukemia
[12] = tested on: OVCAR-8 ovarian
[13] = tested on: MDA-N
[14] = tested on: U251 CNS
[15] = tested on: PC-3 prostate
[16] = tested on: NCI/ADR-RES ovarian
[17] = tested on: MDA-MB-231 breast
[18] = tested on: COLO 205 colon
[19] = tested on: HCT-15 colon
[20] = tested on: UACC-62 melanoma
[21] = tested on: HCT-116 colon
[22] = tested on: MOLT-4 leukemia
[23] = tested on: NCI-H522 lung
[24] = tested on: HOP-92 NSCLC
[25] = tested on: SNB-19 CNS
[26] = tested on: HT29 colon
[27] = tested on: ACHN renal
[28] = tested on: HOP-62 NSCLC
[29] = tested on: NCI-H460 lung
[30] = tested on: RXF 393 renal
[31] = tested on: UACC-257 melanoma
[32] = tested on: HS 578T breast
[33] = tested on: IGROV1 ovarian
[34] = tested on: MCF7 breast
[35] = tested on: OVCAR-3 ovarian
[36] = tested on: T-47D breast
[37] = tested on: M14 melanoma
[38] = tested on: SF-295 CNS
[39] = tested on: HCC-2998 colon
[40] = tested on: SF-268 CNS
[41] = tested on: TK-10 renal
[42] = tested on: A549 NSCLC
[43] = tested on: OVCAR-4 ovarian
[44] = tested on: NCI-H23 lung
[45] = tested on: SK-MEL-28 melanoma
[46] = tested on: OVCAR-5 ovarian
[47] = tested on: RPMI-8226 leukemia
[48] = tested on: SK-MEL-5 melanoma
[49] = tested on: BT-549 breast
[50] = tested on: SNB-75 CNS
[51] = tested on: A498 renal
[52] = tested on: SK-OV-3 ovarian
[53] = tested on: SN12C renal
[54] = tested on: NCI-H226 lung
[55] = tested on: SR leukemia
[56] = tested on: LOX IMVI melanoma
[57] = tested on: CCRF-CEM leukemia

Measured: TGI

C[C@@H]1OC(=O)C[C@H]2CC(=O)N(CCC3CN(C(=O)OCc4ccccc4)c4ccccc43)C[C@@H]21 (stereo partly drawn)
not listed: [53] | [54] | [55] | [56] | [57]
> 100 µM: all other assays above

CN1CCN(C(=S)N(C)C(=O)c2ccco2)CC1
not listed: [2] | [10] | [15] | [16] | [21] | [28] | [40] | [45] | [50] | [51] | [52]
> 100 µM: all other assays above
